For orientation: pIC50 means the negative decadic logarithm of the IC50, by convention in mol/L.

Here are results for 14 compounds from patent EP4656642A1, “ESTROGEN RECEPTOR PROTEOLYSIS TARGETING CHIMERA COMPOUND AND USE THEREOF” (GAN & LEE PHARM CO., LTD, priority 2023, dated 2024).

Common to all, as to assay type: cell-based
For experiment [1], the target named is T1, ERα (Homo sapiens, UniProt P03372).
T1 sequence (P03372 1-595): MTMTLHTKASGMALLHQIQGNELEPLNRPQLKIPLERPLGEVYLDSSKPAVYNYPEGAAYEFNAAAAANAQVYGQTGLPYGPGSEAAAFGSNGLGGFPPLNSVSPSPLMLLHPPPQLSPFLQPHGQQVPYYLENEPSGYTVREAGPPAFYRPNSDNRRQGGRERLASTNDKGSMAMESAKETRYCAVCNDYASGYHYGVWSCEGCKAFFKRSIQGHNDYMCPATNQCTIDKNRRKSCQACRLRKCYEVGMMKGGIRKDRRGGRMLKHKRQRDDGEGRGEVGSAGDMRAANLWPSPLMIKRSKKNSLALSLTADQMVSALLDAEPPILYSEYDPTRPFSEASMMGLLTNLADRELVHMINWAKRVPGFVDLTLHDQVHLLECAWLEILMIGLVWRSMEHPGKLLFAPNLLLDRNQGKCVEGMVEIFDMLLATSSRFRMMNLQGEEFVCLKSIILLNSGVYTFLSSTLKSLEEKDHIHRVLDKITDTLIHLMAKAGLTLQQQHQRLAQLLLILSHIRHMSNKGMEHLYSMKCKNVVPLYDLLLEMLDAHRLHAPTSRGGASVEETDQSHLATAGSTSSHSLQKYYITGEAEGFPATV
Put plainly: Degradation of ERα in T-47D cells (immunoblotting, 4 h). Details: host or cells: T-47D. The protocol:
(§1) T-47D cells were inoculated into 6-well plates at a density of 3×10^5 cells/well and cultured at 37°C, 5% CO2 for 24 h. After the cells were attached to the wall, 1µL of the compound solution in dimethyl sulfoxide (final concentration 0.15-1000 nM) was added and continued to be cultured in the incubator with 5% CO2 at 37°C for 4 h. After 4 h, the culture medium was discarded, and each well was washed once with pre-cooled 1×DPBS, and the cells were lysed with a mixture of 50 µL of RIPA lysis buffer (P0013B, Beyotime) and 1× protease inhibitor (P1005, Beyotime), and then centrifuged at 14,000 g for 30 min at 4°C after resting on ice for 20 min, and the supernatant was carefully collected to detect the protein level of ERα by protein immunoblotting (Immunoblotting).

Experiment [2] has as its target T1, ERα. The experiment in a line: Degradation of ERα in MCF-7 cells (immunoblotting, 4 h). The protocol:
as §1, with “MCF-7” for “T-47D”, “24h.” for “24 h.”, “0.15-1000nM)” for “0.15-1000 nM)”, “in” for “in the”, “incubator at 37°C” for “incubator”, “CO2” for “CO2 at 37°C”
Protein immunoblotting: The total protein concentration in the collected cell lysate supernatant was determined by BCA Protein Concentration Assay Kit (Enhanced) (P0009, Beyotime). According to the total protein concentration detected by BCA, the protein was adjusted to 1 µg/µL with RIPA lysis buffer and 5× SDS-PAGE protein loading buffer (MB01015, Genscript), and the protein was denatured by water bath at 95°C for 5 min, and then centrifuged after denaturation to enrich the condensate on the wall of the centrifuge tubes as a loading sample. […] At the end of electrophoresis, the proteins in the SDS-PAGE gels were transferred to a PVDF membrane at a constant voltage of 100 V for 60 min. After that, the PVDF membrane corresponding to ERα protein and internal reference protein was cut out and incubated in 1×QµickBlock blocking solution (P0252, Beyotime) for 30 min at room temperature on a shaker. […] Protein profiles were analyzed by Image Studio Lite analysis software for grayscale values. Grayscale correction values were calculated for each sample using the Formula: corrected grayscale value = grayscale value of the target protein /corresponding grayscale value of the internal reference. The degradation rate for the compounds was then calculated by comparing the corrected grayscale values of the compound group to the control group. Table 7 Degradation rate (%) of ERα by the PROTAC compounds of the present disclosure and positive control sample in MCF-7 cells
Background: A western blot detects proteins with antibodies after separation by electrophoresis.

The next experiment deals with MCF-7 cells. Put plainly: Inhibition of cell proliferation of MCF-7 cells (CCK-8, 9 days). To be noted: treated for 9 days, CCK-8 kit (Table 6). The text has this:
Test Example 4 Inhibitory effect of the PROTAC compounds disclosed in the present disclosure on cell proliferation of MCF-7 cells
The complete medium required for MCF-7 cells (source ATCC) was DMEM (gibco, Product number :11995-065) basal medium containing 10% fetal bovine serum. MCF-7 cells were inoculated in 96-well plates at a density of 800 cells/well, and different concentrations of the PROTAC compounds 1-55 provided in the embodiments of the present disclosure and a positive control sample ARV-471 (source: Innochem) were prepared to treat cells, and cells were treated at 37°C in a cell culture incubator with 5% CO2 for 9 days. Cell viability was detected using a CCK -8 kit (Beyotime , Product number: C0040) according to the manufacturer's instruction. […] Table 5 IC50 values for inhibition of the proliferation of MCF-7 cells by the PROTAC compounds of the present disclosure and positive control sample
(Tetrazolium assays rely on reduction of a dye to a coloured formazan, in cell work by metabolically active cells.)

pIC50: −log10 of the molar value.

`C[C@@H]1Cc2c([nH]c3ccccc23)[C@@H](c2c(F)cc(N3CCC(N4CC[C@@H](N5CCC6(CC5)COc5c6ccc6c5CN(C5CCC(=O)NC5=O)C6=O)[C@@H](F)C4)CC3)cc2F)N1CC(F)F` (stereo partly shown) [D11]: the “Degradation rate (%) of ERα in T-47D cells” value on ERα [1] (1nM compound) came out at 52%; on ERα [1] (10nM compound), 82%. For the same compound, the “Degradation rate (%) of ERα in MCF-7 cells” value on ERα [2] (1nM compound) is given as 6%; at ERα [2] (10nM compound) it was 66%. In the experiment with MCF-7 cells, this compound gave a negative-log IC50 (pIC50) of 7.72.
Turning to `O=C1CCC(N2Cc3c(ccc4c3OCC43CCN(C4CCN(C(=O)C5CCN(c6ccc(C7c8ccc(O)cc8CCC7c7ccccc7)cc6)CC5)CC4F)CC3)C2=O)C(=O)N1` (stereo not shown) [G12], the “Degradation rate (%) of ERα in T-47D cells” value on ERα [1] (1nM compound) worked out at 47%; at ERα [1] (10nM compound), 81%. The figures for the “Degradation rate (%) of ERα in MCF-7 cells” value at ERα [2] (1nM compound) and at ERα [2] (10nM compound) were 24% and 57%, respectively. The compound also gave a pIC50 with MCF-7 cells of 8.03.
Take `CN(C(=O)CN1CCC2(CC1)COc1c2ccc2c1CN(C1CCC(=O)NC1=O)C2=O)C1CC2(CCN(c3ccc([C@@H]4c5ccc(O)cc5CC[C@@H]4c4ccccc4)cc3)CC2)C1` (stereo partly shown) [H47]: the “Degradation rate (%) of ERα in T-47D cells” value on ERα [1] (1nM compound) is on record as 49%; on ERα [1] (10nM compound), 82%. Moreover, the “Degradation rate (%) of ERα in MCF-7 cells” value stood at 39% at ERα [2] (1nM compound) and 76% on ERα [2] (10nM compound). The compound further had a pIC50 in the experiment on MCF-7 cells of 6.44.
As to `C[C@@H]1Cc2cc(O)ccc2C(c2c(F)cc(N3CCN(C[C@H]4CC[C@H](C(=O)N5CCC6(CC5)COc5c6ccc6c5CN(C5CCC(=O)NC5=O)C6=O)CC4)CC3)cc2F)N1CC(F)F` (stereo partly shown) [I6], the “Degradation rate (%) of ERα in T-47D cells” value on ERα [1] (1nM compound) is 56%; at ERα [1] (10nM compound), 65%. Also, the entries for the “Degradation rate (%) of ERα in MCF-7 cells” value on ERα [2] (1nM compound) and at ERα [2] (10nM compound) were 57% and 45%, respectively. The pIC50 in the experiment on MCF-7 cells was 8.18.
`O=C1CCC(N2Cc3c(ccc4c3OCC43CCN(CC(=O)N(CC4CC4)C4CC5(CCN(c6ccc([C@@H]7c8ccc(O)cc8CC[C@@H]7c7ccccc7)cc6)CC5)C4)CC3)C2=O)C(=O)N1` (stereo partly shown) [H54]: the “Degradation rate (%) of ERα in T-47D cells” value at ERα [1] (1nM compound) came out at 24%; on ERα [1] (10nM compound), 60%. Moreover, the “Degradation rate (%) of ERα in MCF-7 cells” value on ERα [2] (1nM compound) is 11%; at ERα [2] (10nM compound), 44%. The pIC50 with MCF-7 cells was 6.59.
As for `O=C1CCC(N2Cc3c(ccc4c3OCC43CCN(C(=O)C45CCC(CN6CCN(c7ccc([C@@H]8c9ccc(O)cc9CC[C@@H]8c8ccccc8)cc7)CC6)(CC4)CC5)CC3)C2=O)C(=O)N1` (stereo partly shown) [G23], the “Degradation rate (%) of ERα in T-47D cells” value on ERα [1] (1nM compound) is recorded as 28%; at ERα [1] (10nM compound), 62%. For the same compound, the “Degradation rate (%) of ERα in MCF-7 cells” value at ERα [2] (1nM compound) was 1%; on ERα [2] (10nM compound) it was 43%. The compound also gave a pIC50 in the experiment on MCF-7 cells of 6.35.
As for `C[C@@H]1CN(C(=O)C2CCN(c3cc(F)c(C4c5ccc(O)cc5C[C@@H](C)N4CC(F)F)c(F)c3)CC2)CCC1N1CCC2(CC1)COc1c2ccc2c1CN(C1CCC(=O)NC1=O)C2=O` (stereo partly shown) [I5], the “Degradation rate (%) of ERα in T-47D cells” value at ERα [1] (1nM compound) came to 55%; at ERα [1] (10nM compound) it was 68%. In addition, the “Degradation rate (%) of ERα in MCF-7 cells” value is recorded as 60% on ERα [2] (1nM compound) and 56% on ERα [2] (10nM compound). The compound further gave a pIC50 in the experiment with MCF-7 cells of 7.98.
Consider `CN(CC(=O)N1CCC2(CC1)COc1c2ccc2c1CN(C1CCC(=O)NC1=O)C2=O)C1CC2(CCN(c3ccc([C@@H]4c5ccc(O)cc5CC[C@@H]4c4ccccc4)cc3)CC2)C1` (stereo partly shown) [H48], for which the results for the “Degradation rate (%) of ERα in T-47D cells” value at ERα [1] (1nM compound) and on ERα [1] (10nM compound) were 53% and 78%, respectively. Besides, the “Degradation rate (%) of ERα in MCF-7 cells” value on ERα [2] (1nM compound) is reported as 38%; at ERα [2] (10nM compound), 71%. This compound also had a pIC50 in the experiment on MCF-7 cells of 5.90.
`O=C1CCC(N2C(=O)c3ccc4c(c3C2=O)OCC42CCN(C3CCC4(CC3)CCN(c3ccc([C@@H]5c6ccc(O)cc6CC[C@@H]5c5ccccc5)cc3)CC4)CC2)C(=O)N1` (stereo partly shown) [L4]: the “Degradation rate (%) of ERα in T-47D cells” value at ERα [1] (1nM compound) was determined as 9%; at ERα [1] (10nM compound) it was 44%. Also, the “Degradation rate (%) of ERα in MCF-7 cells” value on ERα [2] (1nM compound) was 9%; at ERα [2] (10nM compound), 48%. In addition, the pIC50 with MCF-7 cells was 6.01.
As for `O=C1CCC(N2Cc3cc4c(cc3C2=O)OC2(CC4)CCN(C(=O)CN3CCC4(CC3)CCN(c3ccc([C@@H]5c6ccc(O)cc6CC[C@@H]5c5ccccc5)cc3)CC4)CC2)C(=O)N1` (stereo partly shown) [A67], the entries for the “Degradation rate (%) of ERα in T-47D cells” value at ERα [1] (1nM compound) and on ERα [1] (10nM compound) were 26% and 76%, respectively. Also, the “Degradation rate (%) of ERα in MCF-7 cells” value amounted to 27% at ERα [2] (1nM compound) and 67% at ERα [2] (10nM compound). The same compound gave a pIC50 with MCF-7 cells of 8.40.
With `N#CC1(C(=O)N2CCC(N3CCC4(CC3)COc3c4ccc4c3CN(C3CCC(=O)NC3=O)C4=O)CC2)CCN(c2ccc([C@@H]3c4ccc(O)cc4CC[C@@H]3c3ccccc3)cc2)CC1` (stereo partly shown) [K35], the figures for the “Degradation rate (%) of ERα in T-47D cells” value at ERα [1] (1nM compound) and on ERα [1] (10nM compound) were 60% and 72%, respectively. Further, the “Degradation rate (%) of ERα in MCF-7 cells” value at ERα [2] (1nM compound) was 46%; on ERα [2] (10nM compound) it was 64%. This compound also had a negative-log IC50 (pIC50) in the experiment on MCF-7 cells of 7.48.
In the same order, the values of `O=C1CCC(N2Cc3c(ccc4c3OCC43CCN(C(=O)C4CCN(CC5CCN(c6ccc([C@@H]7c8ccc(O)cc8CC[C@@H]7c7ccccc7)cc6)CC5)CC4)CC3)C2=O)C(=O)N1` (stereo partly shown) [J8] are 79%, 81%, 78%, 85% and 8.31.
As for `C[C@@H]1Cc2cc(O)ccc2C(c2c(F)cc(N3CCC4(CCN(CC(=O)N5CCC6(CC5)COc5c6ccc6c5CN(C5CCC(=O)NC5=O)C6=O)C4)CC3)cc2F)N1CC(F)F` (stereo partly shown) [F8], the “Degradation rate (%) of ERα in T-47D cells” value is listed as 61% at ERα [1] (1nM compound) and 68% at ERα [1] (10nM compound). Besides, the “Degradation rate (%) of ERα in MCF-7 cells” value at ERα [2] (1nM compound) and at ERα [2] (10nM compound) was 63% each time. In the experiment on MCF-7 cells, the pIC50 was 6.69.
For `O=C1CCC(N2Cc3c(ccc4c3OCC43CCN(C4C5CCC4CN(C(=O)C4CCN(c6ccc([C@@H]7c8ccc(O)cc8CC[C@@H]7c7ccccc7)cc6)CC4)C5)CC3)C2=O)C(=O)N1` (stereo partly shown) [J4], the “Degradation rate (%) of ERα in T-47D cells” value on ERα [1] (1nM compound) came to 8%; at ERα [1] (10nM compound), 51%. For the same compound, the “Degradation rate (%) of ERα in MCF-7 cells” value came to 32% at ERα [2] (1nM compound) and 60% at ERα [2] (10nM compound). In the experiment with MCF-7 cells, the pIC50 is 7.65.
